Test: Antiviral activity against Influenza A virus A/WSN/33(H1N1) infected in MDCK cells assessed as inhibition of virus-induced cytopathic effect after 3 days by WST-8 assay
Format: functional, cell-based, Influenza A virus (A/WSN/1933(H1N1))
Conditions: 72 h

Row | Structure (SMILES) | EC50 [nM]
1 | O=C(O)c1cn(CC2(n3ccc4cccnc43)CCCC2)cc(O)c1=O | 201

Test: Inhibition of Influenza A virus A/WSN/33(H1N1) cap-dependent endonuclease using 3'-BHQ2 labeled 30-mer RNA as substrate after 60 mins by fluorescence assay
Set-up: species or system Influenza A virus (A/WSN/1933(H1N1))
Conditions: not given

Row | Structure (SMILES) | IC50 [nM]
2 | O=C(O)c1cn(Cc2ccccc2)cc(O)c1=O | 2100
3 | O=C(O)c1cn(Cc2ccc(F)cc2)cc(O)c1=O | 3230
4 | O=C(O)c1cn(CC2(c3cccc(Oc4ccccc4)c3)CCCC2)cc(O)c1=O | 43
5 | O=C(O)c1cn(CCCc2ccccc2)cc(O)c1=O | 1420
6 | O=C(O)c1cn(CC2(c3ccc4ccccc4c3)CCCC2)cc(O)c1=O | 28.4
7 | O=C(O)c1cn(CCc2ccc(Cl)cc2)cc(O)c1=O | 824
8 | O=C(O)c1cn(Cc2ccc(F)cc2)ccc1=O | > 500000
9 | O=C(O)c1cn(CC2(c3ccccc3)CCC2)cc(O)c1=O | 105
10 | O=C(O)c1cn(CCc2ccccc2Cl)cc(O)c1=O | 242
11 | O=C(O)c1cn(-c2ccc(F)cc2)cc(O)c1=O | 6510
12 | Cn1cc(C2(Cn3cc(O)c(=O)c(C(=O)O)c3)CCCC2)c2ncccc21 | 46.3
13 | Cn1cc(C2(Cn3cc(O)c(=O)c(C(=O)O)c3)CCCC2)c2ccccc21 | 16.1
14 | O=C(O)c1cn(CC2(c3ccc(Cl)cc3)CCCC2)cc(O)c1=O | 15.6
15 | O=C(O)c1cn(CC2(c3cccc(Cl)c3)CCCC2)cc(O)c1=O | 9.2
16 | O=C(O)c1cn(CC2(c3ccccc3)CCCCC2)cc(O)c1=O | 61.8
17 | O=C(O)c1cn(CCc2cccc(Cl)c2)cc(O)c1=O | 430
18 | O=C(O)c1cn(CC2(c3ccccc3Cl)CCCC2)cc(O)c1=O | 36.1
19 | O=c1ccn(Cc2ccc(F)cc2)cc1O | > 500000
20 | O=C(O)c1cn(CCc2ccc(-c3ccc(F)cc3)cc2)cc(O)c1=O | 3730
21 | O=C(O)c1cn(CC2(c3ccccc3)CC2)cc(O)c1=O | 402
22 | O=C(O)c1cn(CCc2ccccc2)cc(O)c1=O | 714
23 | O=C(O)c1cn(CCc2ccc(O)cc2)cc(O)c1=O | 2490
24 | O=C(O)c1cn(CCCCc2ccccc2)cc(O)c1=O | 2810
25 | O=C(O)c1cn(CC2(c3ccnc(-n4cccn4)c3)CCCC2)cc(O)c1=O | 17.9
26 | O=C(O)c1cn(CC2(n3ccc4cccnc43)CCCC2)cc(O)c1=O | 5.12
27 | O=C(O)c1cn(CC2(c3ccc4cccnc4c3)CCCC2)cc(O)c1=O | 16.4
28 | O=C(O)c1cn(CC2(c3ccccc3)CCCC2)cc(O)c1=O | 60.7
29 | O=C(O)c1cn(CC2(c3ccc4c(c3)OCO4)CCCC2)cc(O)c1=O | 16.3

Reference: ChEMBL document CHEMBL3856241, “Discovery of novel 5-hydroxy-4-pyridone-3-carboxy acids as potent inhibitors of influenza Cap-dependent endonuclease” (Bioorg Med Chem Lett, 2016)
